The values below come from patent publication US11834453B2, “Substituted pyrimido[5,4-d]pyrimidines as HER2 inhibitors” (Array BioPharma Inc., priority 2020, dated 2023).

The target in data set [1] is ErbB2 insYVMA (HER2-YVMA, SEQ ID NO: 2) (Homo sapiens, UniProt P04626, INS775YVMA/P1170A). In words: biochemical. To be noted: ErbB2 insYVMA enzyme assay; read-out: Assay 1 IC50.
For another data set, the target named is EGFR (Homo sapiens (Human), UniProt P00533). In words: ErbB enzyme assay (CisBio HTRF KinEASE-TK), Assay 3. It counts as biochemical. An outline of the steps: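 IC50 was taken where a 4-parameter logistic fit crossed 50 percent of control (DMSO 100, pre-quenched 0), read by ratiometric HTRF. Reactions ran 30 min at 22 °C with 1 mM ATP and 250 nM TK-substrate biotin in pH 7.4 HEPES buffer with MgCl2, Triton X-100 and 2% DMSO.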
Sequence of EGFR (P00533 25-1210): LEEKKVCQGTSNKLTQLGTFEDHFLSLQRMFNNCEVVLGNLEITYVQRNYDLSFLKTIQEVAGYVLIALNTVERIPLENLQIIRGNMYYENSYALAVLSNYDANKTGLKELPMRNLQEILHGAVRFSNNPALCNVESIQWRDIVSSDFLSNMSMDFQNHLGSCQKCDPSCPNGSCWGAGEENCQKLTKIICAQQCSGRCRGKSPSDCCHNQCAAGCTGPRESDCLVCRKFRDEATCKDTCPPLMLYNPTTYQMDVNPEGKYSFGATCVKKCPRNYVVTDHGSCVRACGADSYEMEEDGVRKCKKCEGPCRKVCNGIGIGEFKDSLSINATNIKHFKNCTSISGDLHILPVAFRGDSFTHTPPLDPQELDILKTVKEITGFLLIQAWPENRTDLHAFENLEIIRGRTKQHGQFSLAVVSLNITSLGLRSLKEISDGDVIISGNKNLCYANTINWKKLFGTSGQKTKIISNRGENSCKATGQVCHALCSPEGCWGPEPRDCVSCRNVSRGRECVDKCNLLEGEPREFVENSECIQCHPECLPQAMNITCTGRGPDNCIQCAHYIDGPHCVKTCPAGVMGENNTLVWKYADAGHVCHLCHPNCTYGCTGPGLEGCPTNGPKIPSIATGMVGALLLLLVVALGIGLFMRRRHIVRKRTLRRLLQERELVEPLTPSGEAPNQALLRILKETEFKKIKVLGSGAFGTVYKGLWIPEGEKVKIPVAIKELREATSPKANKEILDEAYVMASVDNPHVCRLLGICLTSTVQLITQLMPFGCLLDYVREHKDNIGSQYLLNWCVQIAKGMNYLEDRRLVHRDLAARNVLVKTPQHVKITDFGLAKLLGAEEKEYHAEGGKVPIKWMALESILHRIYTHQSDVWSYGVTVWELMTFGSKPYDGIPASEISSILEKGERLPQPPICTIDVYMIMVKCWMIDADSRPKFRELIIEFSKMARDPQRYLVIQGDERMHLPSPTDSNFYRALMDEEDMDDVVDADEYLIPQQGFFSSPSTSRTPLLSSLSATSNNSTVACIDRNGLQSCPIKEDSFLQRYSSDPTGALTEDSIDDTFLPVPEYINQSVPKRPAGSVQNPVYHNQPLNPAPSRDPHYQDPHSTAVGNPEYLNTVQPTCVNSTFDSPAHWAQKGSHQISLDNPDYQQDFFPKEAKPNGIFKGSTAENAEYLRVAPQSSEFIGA
For orientation: In TR-FRET formats the signal depends on donor and acceptor labels being close together.

The next data set addresses MDR1 (P-gp) (Homo sapiens (Human), UniProt P08183). The data set can be described thus: MDR1 transfected MDCKII canine Mdr1 knockout permeability/efflux, Assay 7. To be noted: for efflux ratio at 2 h, 1 μM: dog, MDCK-MDR1.
The target in data set [2] is ErbB2 with Exon 20 YVMA insertion (HER2-YVMA) (Homo sapiens (Human), UniProt P04626, INS775YVMA). The data set can be described thus: Cellular phosphorylation assay, constitutive ErbB2 phosphorylation (Y1196) in engineered NIH 3T3 cells, Assay 4. It counts as cell-based. An outline of the steps:
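In-cell Western in NIH 3T3 cells carrying ErbB2 exon 20 YVMA insertion, with no ligand stimulation. One hour compound exposure at 37 °C before fixation and anti-pY1196 plus GAPDH staining with dual-wavelength fluorescence. IC50 derived after GAPDH normalization.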

For another data set, the target named is BCRP (Homo sapiens (Human), UniProt Q9UNQ0). In words: BCRP transfected MDCKII canine Mdr1 knockout permeability/efflux, Assay 9. The conditions noted are these: for efflux ratio at 2 h, 1 μM: dog.
For another data set, the target named is ErbB2 WT (Homo sapiens (Human), UniProt P04626). In words: ErbB enzyme assay (CisBio HTRF KinEASE-TK), Assay 2. It counts as biochemical. In short, it runs like this:
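Readout is HTRF KinEASE-TK, using Sa-XL665 and cryptate antibody for 1 h at 22 °C, as percent of control between DMSO-only (100) and pre-quenched (0) reactions. The kinase reaction runs 30 min at 22 °C with 1 mM ATP and 250 nM biotinylated TK substrate, in HEPES pH 7.4 with MgCl2 and 2% DMSO.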

In the next data set the target is EGFR wild type (EGFR WT) (Homo sapiens (Human), UniProt P00533). The data set can be described thus: Cellular phosphorylation assay, EGF-stimulated EGFR phosphorylation in engineered NIH 3T3 cells, Phospho-EGFR DuoSet IC ELISA, Assay 5. It counts as cell-based. An outline of the steps: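 Phospho-EGFR ELISA on lysates of engineered NIH 3T3 EGFR WT cells, IC50 derived from concentration curves. Cells plated at 20,000/well overnight, given compound dilutions 1 h at 37 °C, then rEGF 100 ng/ml for a further 10 min before lysis.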
Sequence of EGFR wild type (EGFR WT) (P00533 25-1210): as above
A general note: An ELISA detects its analyte on a solid surface through an enzyme-linked reagent.

Setting [3] is: Assay 9 Pe Ratio, efflux ratio Papp(B-A)/Papp(A-B), BCRP transfected MDCKII canine Mdr1 knockout.

Sequence of MDR1 (P-gp) (P08183 whole entry): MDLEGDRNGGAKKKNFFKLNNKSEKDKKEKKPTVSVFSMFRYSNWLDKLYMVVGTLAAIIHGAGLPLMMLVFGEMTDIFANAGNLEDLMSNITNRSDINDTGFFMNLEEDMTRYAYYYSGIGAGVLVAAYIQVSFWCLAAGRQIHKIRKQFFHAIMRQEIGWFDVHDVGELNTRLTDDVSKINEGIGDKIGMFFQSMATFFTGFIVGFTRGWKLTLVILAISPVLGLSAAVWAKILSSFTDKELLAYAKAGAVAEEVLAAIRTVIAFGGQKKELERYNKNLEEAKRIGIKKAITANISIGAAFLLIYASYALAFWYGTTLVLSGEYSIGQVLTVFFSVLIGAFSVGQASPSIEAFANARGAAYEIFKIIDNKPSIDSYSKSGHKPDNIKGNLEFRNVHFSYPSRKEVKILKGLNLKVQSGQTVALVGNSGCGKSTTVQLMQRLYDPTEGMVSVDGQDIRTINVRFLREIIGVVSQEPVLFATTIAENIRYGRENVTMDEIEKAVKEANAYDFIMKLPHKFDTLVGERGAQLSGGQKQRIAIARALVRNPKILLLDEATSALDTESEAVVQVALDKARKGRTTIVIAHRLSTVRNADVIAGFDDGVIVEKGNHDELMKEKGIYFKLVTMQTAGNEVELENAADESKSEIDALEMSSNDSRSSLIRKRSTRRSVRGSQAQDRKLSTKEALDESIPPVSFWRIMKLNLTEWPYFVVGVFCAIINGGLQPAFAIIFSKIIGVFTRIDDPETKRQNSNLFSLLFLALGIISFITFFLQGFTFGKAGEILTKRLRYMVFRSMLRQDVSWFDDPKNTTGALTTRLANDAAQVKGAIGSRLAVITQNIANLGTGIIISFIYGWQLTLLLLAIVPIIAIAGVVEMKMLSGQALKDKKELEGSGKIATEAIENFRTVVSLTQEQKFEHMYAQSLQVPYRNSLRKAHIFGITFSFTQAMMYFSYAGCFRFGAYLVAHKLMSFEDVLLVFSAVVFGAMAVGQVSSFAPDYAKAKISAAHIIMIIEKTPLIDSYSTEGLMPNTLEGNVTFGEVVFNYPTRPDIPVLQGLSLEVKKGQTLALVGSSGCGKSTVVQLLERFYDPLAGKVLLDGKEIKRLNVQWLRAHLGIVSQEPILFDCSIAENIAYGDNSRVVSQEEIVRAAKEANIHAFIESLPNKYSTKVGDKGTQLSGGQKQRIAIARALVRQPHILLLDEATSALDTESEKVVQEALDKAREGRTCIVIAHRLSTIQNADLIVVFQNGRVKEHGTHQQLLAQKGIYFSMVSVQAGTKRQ
Sequence of ErbB2 with Exon 20 YVMA insertion (HER2-YVMA) (P04626 other isoform, or with tags, fused parts or gaps ins YVMA behind 775): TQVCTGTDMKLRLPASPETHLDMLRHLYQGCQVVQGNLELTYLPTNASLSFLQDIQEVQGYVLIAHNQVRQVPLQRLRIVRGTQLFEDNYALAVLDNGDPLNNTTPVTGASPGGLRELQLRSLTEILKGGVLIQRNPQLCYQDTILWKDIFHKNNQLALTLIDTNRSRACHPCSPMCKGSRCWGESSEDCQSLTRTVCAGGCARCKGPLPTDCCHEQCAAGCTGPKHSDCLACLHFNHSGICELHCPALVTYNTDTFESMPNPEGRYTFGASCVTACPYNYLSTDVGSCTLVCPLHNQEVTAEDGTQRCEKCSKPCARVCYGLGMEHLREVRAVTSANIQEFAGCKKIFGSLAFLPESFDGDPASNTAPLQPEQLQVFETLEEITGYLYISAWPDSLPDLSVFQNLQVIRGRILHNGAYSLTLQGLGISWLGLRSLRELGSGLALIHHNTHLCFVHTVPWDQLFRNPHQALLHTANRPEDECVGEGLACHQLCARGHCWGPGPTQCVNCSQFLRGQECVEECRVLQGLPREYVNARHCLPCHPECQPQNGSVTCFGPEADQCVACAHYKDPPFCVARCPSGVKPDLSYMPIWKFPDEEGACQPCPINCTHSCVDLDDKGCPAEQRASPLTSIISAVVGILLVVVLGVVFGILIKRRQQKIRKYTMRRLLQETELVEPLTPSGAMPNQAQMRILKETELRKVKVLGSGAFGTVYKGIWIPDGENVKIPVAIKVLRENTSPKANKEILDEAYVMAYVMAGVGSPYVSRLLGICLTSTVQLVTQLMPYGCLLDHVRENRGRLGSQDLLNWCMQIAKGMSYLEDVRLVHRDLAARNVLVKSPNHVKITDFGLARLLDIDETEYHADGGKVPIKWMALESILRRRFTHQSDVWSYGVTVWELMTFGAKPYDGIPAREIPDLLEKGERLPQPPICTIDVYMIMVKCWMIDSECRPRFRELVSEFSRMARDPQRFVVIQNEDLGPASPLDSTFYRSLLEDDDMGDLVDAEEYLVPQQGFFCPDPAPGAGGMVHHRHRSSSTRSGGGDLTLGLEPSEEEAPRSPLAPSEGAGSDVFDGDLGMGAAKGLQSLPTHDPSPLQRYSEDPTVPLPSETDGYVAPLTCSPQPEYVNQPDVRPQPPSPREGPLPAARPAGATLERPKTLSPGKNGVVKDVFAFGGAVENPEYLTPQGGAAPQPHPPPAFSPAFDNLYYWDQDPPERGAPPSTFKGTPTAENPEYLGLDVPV
Description for MDR1 (P-gp): Both MDR1 transfected LLC-PK1 (Assay 6) and MDR1 transfected MDCKII canine Mdr1 knockout cells (Assay 7) were cultured and plated according to manufacturer's recommendations with the exception that the passage media for the MDR1 transfected LLC-PK1 cell line contained only 2% fetal bovine serum so as to extend passage time out to seven days.
Both positive and negative controls were used to assess functionality of P-gp or BCRP efflux in the assays. Stock solutions for assay controls and the test article were prepared in DMSO for final test concentration of 1 μM. Final organic concentration in the assay was 1%. All dosing solutions contained 10 μM lucifer yellow to monitor MDCKII cell monolayer integrity.
For the apical to basolateral determination (A to B), 75 μL of the test article in transport buffer were added to the apical side of the individual transwells and 250 μL of basolateral media, without compound or lucifer yellow, were added to each well. For the basolateral to apical determination (B to A), 250 μL of test article in transport buffer were added to each well and 75 μL transport buffer, without compound or lucifer yellow, were added to each transwell. All tests were performed in triplicate, and each compound was tested for both apical to basolateral and basolateral to apical transport. The plates were incubated for 2 hours on a Lab-Line Instruments Titer Orbital Shaker (VWR, West Chester, PA) at 50 rpm and 37° C. with 5% CO2. All culture plates were removed from the incubator, 50 μL of media were removed from the apical and basolateral portion of each well, and added to 150 μL of 1 μM labetalol in 2:1 acetonitrile (ACN): H2O, v/v.
The plates were read using a Molecular Devices (Sunnyvale, CA) Gemini Fluorometer to evaluate the lucifer yellow concentrations at excitation/emission wavelengths of 425/535 nm. These values were accepted when found to be below 2% for apical to basolateral and 5% basolateral to apical flux across the MDR1-transfected LLC-PK1 or BCRP-transfected MDCKII cell monolayers. The plates were sealed, and the contents of each well analyzed by LC MS/MS. The compound concentrations were determined from the ratio of the peak areas of the compound to the internal standard (labetalol) in comparison to the dosing solution.
A MDS Sciex API 4000 (Applied Biosystems, Foster City, CA) mass spectrometer was used for detection of the analytes in the ion spray positive mode. Analyte responses were measured by multiple reaction monitoring (“MRM”) of transitions unique to each compound (the protonated precursor ion and selected product ions for each test article and m/z 329 to m/z 162 for labetalol, the internal standard.
The total run time, including re-equilibration, for a single injection was 1.2 minutes. […] The total run time, including re-equilibration, for a single injection was 0.61 minutes.
An efflux ratio is calculated from the mean apical to basolateral (A-B) Papp data and basolateral to apical (B-A) Papp data: Efflux ratio=Papp(B−A)/Papp(A−B)

With `Cc1cc(Nc2ncnc3cnc(N4CC5(C4)CC(C)(O)C5)nc23)ccc1Oc1ccc2c(c1)ncn2C` [Example 156, 6-methyl-2-(8-((3-methyl-4-((1-methyl-1H-benzo[d]imidazol-5-yl)oxy)phenyl)amino)pyrimido[5,4-d]pyrimidin-2-yl)-2-azaspiro[3.3]heptan-6-ol], the 50% inhibitory concentration (IC50) – broadly, the point on the concentration scale where inhibition reaches its midpoint – in data set [1] was 6.4 nM; at EGFR, no less than 10 µM; in data set [2], 12.3 nM; against ErbB2 WT, 5.2 nM; on EGFR wild type (EGFR WT) it was no less than 5 µM. Besides, the efflux ratio (usually a quotient of directional permeabilities that is used to spot active efflux) at 2 h, 1 μM worked out at 2 at MDR1 (P-gp) and 26 on BCRP.
With `Cc1cc(Nc2ncnc3cnc(N4C[C@H]5C[C@@H]4C[C@@H]5O)nc23)ccc1Oc1ccc2c(c1)ncn2C` [Example 157, (1R,4R,5S)-2-(8-((3-methyl-4-((1-methyl-1H-benzo[d]imidazol-5-yl)oxy)phenyl)amino)pyrimido[5,4-d]pyrimidin-2-yl)-2-azabicyclo[2.2.1]heptan-5-ol], the IC50 is 33.5 nM in data set [1]; no less than 10 µM at EGFR; 27.8 nM in data set [2]; 56.8 nM against ErbB2 WT; no less than 5 µM against EGFR wild type (EGFR WT). Besides, on MDR1 (P-gp) (efflux ratio Papp(B-A)/Papp(A-B), MDR1 transfected MDCKII canine Mdr1 knockout), the “Assay 7 Pe Ratio” value worked out at 2.1. On BCRP (efflux ratio Papp(B-A)/Papp(A-B), BCRP transfected MDCKII canine Mdr1 knockout), the “Assay 9 Pe Ratio” value was 21.0.
For the compound `Cc1cc(Nc2ncnc3cnc(N4CC5CC5(O)C4)nc23)ccc1Oc1ccc2c(c1)ncn2C` (stereo not shown) [Example 158, 3-(8-((3-methyl-4-((1-methyl-1H-benzo[d]imidazol-5-yl)oxy)phenyl)amino)pyrimido[5,4-d]pyrimidin-2-yl)-3-azabicyclo[3.1.0]hexan-1-ol], the half-inhibitory concentration (IC50) in data set [1] was 29.4 nM; at EGFR, no less than 10 µM; in data set [2], 9.8 nM; on ErbB2 WT, 58.2 nM; against EGFR wild type (EGFR WT) it was no less than 5 µM. Besides, the values for the efflux ratio at 2 h, 1 μM at MDR1 (P-gp) and at BCRP (setting [3]) were 1.9 and 33.8, respectively.
Regarding `Cc1cc(Nc2ncnc3cnc(N4CCN(C5COC5)CC4)nc23)ccc1Oc1ccc2c(c1)ncn2C` [Example 159, N-(3-methyl-4-((1-methyl-1H-benzo[d]imidazol-5-yl)oxy)phenyl)-6-(4-(oxetan-3-yl)piperazin-1-yl)pyrimido[5,4-d]pyrimidin-4-amine], the half-maximal inhibitory concentration (IC50) in data set [1] was 28.7 nM; on EGFR, 7.37 µM; in data set [2], 17 nM; against ErbB2 WT, 40.7 nM; on EGFR wild type (EGFR WT), no less than 5 µM. In addition, the efflux ratio at 2 h, 1 μM on MDR1 (P-gp) was determined as 2.1; at BCRP (setting [3]), 9.6.
Turning to `Cc1cc(Nc2ncnc3cnc(N4CCC(O)(C(F)F)CC4)nc23)ccc1Oc1ccc2c(c1)ncn2C` [Example 168, 4-(difluoromethyl)-1-(8-((3-methyl-4-((1-methyl-1H-benzo[d]imidazol-5-yl)oxy)phenyl)amino)pyrimido[5,4-d]pyrimidin-2-yl)piperidin-4-ol], the IC50 was 39.1 nM in data set [1]; 3.68 µM against EGFR; 6.5 nM in data set [2]; 113 nM against ErbB2 WT; no less than 5 µM on EGFR wild type (EGFR WT). For the same compound, the values for the efflux ratio at 2 h, 1 μM at MDR1 (P-gp) and at BCRP (setting [3]) were 2 and 16.7, respectively.
With `Cc1cc(Nc2ncnc3cnc(N4C[C@H](O)C(F)(F)C4)nc23)ccc1Oc1ccc2c(c1)ncn2C` [Example 170, (S)-4,4-difluoro-1-(8-((3-methyl-4-((1-methyl-1H-benzo[d]imidazol-5-yl)oxy)phenyl)amino)pyrimido[5,4-d]pyrimidin-2-yl)pyrrolidin-3-ol], the 50% inhibitory concentration (IC50) is 20.1 nM in data set [1]; no less than 10 µM against EGFR; 3.4 nM in data set [2]; 28.6 nM on ErbB2 WT; no less than 5 µM against EGFR wild type (EGFR WT). The efflux ratio at 2 h, 1 μM at MDR1 (P-gp) worked out at 2.1; on BCRP (setting [3]), 36.
With `Cc1cc(Nc2ncnc3cnc(N(C)[C@H]4C[C@](C)(O)C4)nc23)ccc1Oc1ccc2c(c1)ncn2C` [Example 171, (1r,3r)-1-methyl-3-(methyl(8-((3-methyl-4-((1-methyl-1H-benzo[d]imidazol-5-yl)oxy)phenyl)amino)pyrimido[5,4-d]pyrimidin-2-yl)amino)cyclobutan-1-ol], the IC50 in data set [1] was 13.5 nM; at EGFR it was 0.472 µM; in data set [2] it was 7.1 nM; on ErbB2 WT, 5.9 nM; on EGFR wild type (EGFR WT), no less than 5 µM. Further, the efflux ratio at 2 h, 1 μM on MDR1 (P-gp) was 1.9; at BCRP (setting [3]) it was 8.6.
As for `Cc1cc(Nc2ncnc3cnc(N4CCN[C@H](C(F)(F)F)C4)nc23)ccc1Oc1ccc2c(c1)ncn2C` [Example 172, (S)—N-(3-methyl-4-((1-methyl-1H-benzo[d]imidazol-5-yl)oxy)phenyl)-6-(3-(trifluoromethyl)piperazin-1-yl)pyrimido[5,4-d]pyrimidin-4-amine], the IC50 was 31 nM in data set [1]; 8.92 µM at EGFR; 26.2 nM in data set [2]; 35.2 nM against ErbB2 WT; no less than 5 µM against EGFR wild type (EGFR WT). The efflux ratio at 2 h, 1 μM on MDR1 (P-gp) was determined as 1.5; at BCRP (setting [3]), 2.
As to `Cc1cc(Nc2ncnc3cnc(N4CC[C@H](C#N)C4)nc23)ccc1Oc1ccc2c(c1)ncn2C` [Example 173, (S)-1-(8-((3-methyl-4-((1-methyl-1H-benzo[d]imidazol-5-yl)oxy)phenyl)amino)pyrimido[5,4-d]pyrimidin-2-yl)pyrrolidine-3-carbonitrile], the 50% inhibitory concentration (IC50) in data set [1] is 21.8 nM; against EGFR, no less than 10 µM; in data set [2] it was 22.6 nM; on ErbB2 WT, 50.5 nM; on EGFR wild type (EGFR WT), no less than 5 µM. Further, the efflux ratio at 2 h, 1 μM worked out at 1.2 at MDR1 (P-gp) and 4.3 at BCRP (setting [3]).
For the compound `Cc1cc(Nc2ncnc3cnc(N(C)C4COC4)nc23)ccc1Oc1ccc2c(c1)ncn2C` [Example 175, N2-methyl-N8-(3-methyl-4-((1-methyl-1H-benzo[d]imidazol-5-yl)oxy)phenyl)-N2-(oxetan-3-yl)pyrimido[5,4-d]pyrimidine-2,8-diamine], the IC50 in data set [1] was 4.2 nM; on EGFR it was 6.51 µM; in data set [2], 13.9 nM; on ErbB2 WT, 6.3 nM; on EGFR wild type (EGFR WT) it was no less than 5 µM. In addition, the efflux ratio at 2 h, 1 μM at MDR1 (P-gp) came out at 1.4; on BCRP (setting [3]), 1.5.
`Cc1cc(Nc2ncnc3cnc(N(C)[C@H]4CCC[C@@H]4O)nc23)ccc1Oc1ccc2c(c1)ncn2C` [Example 176, (1S,2S)-2-(methyl(8-((3-methyl-4-((1-methyl-1H-benzo[d]imidazol-5-yl)oxy)phenyl)amino)pyrimido[5,4-d]pyrimidin-2-yl)amino)cyclopentan-1-ol]: the IC50 in data set [1] is 32.2 nM; on EGFR, 1.25 µM; in data set [2], 25.4 nM; at ErbB2 WT, 30.8 nM; against EGFR wild type (EGFR WT), no less than 5 µM. Also, the values for the efflux ratio at 2 h, 1 μM on MDR1 (P-gp) and at BCRP (setting [3]) were 1.4 and 13.5, respectively.
Turning to `Cc1cc(Nc2ncnc3cnc(N4CC[C@](C)(O)C4)nc23)ccc1Oc1ccc2c(c1)ncn2C` [Example 179, (S)-3-methyl-1-(8-((3-methyl-4-((1-methyl-1H-benzo[d]imidazol-5-yl)oxy)phenyl)amino)pyrimido[5,4-d]pyrimidin-2-yl)pyrrolidin-3-ol], the IC50 is 10.1 nM in data set [1]; 3.83 µM at EGFR; 28.2 nM in data set [2]; 12.9 nM against ErbB2 WT; no less than 5 µM against EGFR wild type (EGFR WT). Further, the values for the efflux ratio at 2 h, 1 μM at MDR1 (P-gp) and at BCRP (setting [3]) were 1.9 and 15.3, respectively.
With `Cc1cc(Nc2ncnc3cnc(N4CCN5CCOC[C@H]5C4)nc23)ccc1Oc1ccc2c(c1)ncn2C` [Example 180, (R)-6-(hexahydropyrazino[2,1-c][1,4]oxazin-8(1H)-yl)-N-(3-methyl-4-((1-methyl-1H-benzo[d]imidazol-5-yl)oxy)phenyl)pyrimido[5,4-d]pyrimidin-4-amine], the IC50 in data set [1] is 13.2 nM; on EGFR, 4.59 µM; in data set [2], 15.4 nM; at ErbB2 WT it was 20.9 nM; on EGFR wild type (EGFR WT), no less than 5 µM. Also, the efflux ratio at 2 h, 1 μM at MDR1 (P-gp) was found to be 1.3; at BCRP (setting [3]), 2.7.
